Calls of active or inactive are those of the source. Rule as the data show it, for most assays here: actives have a measured IC50 and inactives only a lower limit.
Assays:
[1] = molecular target: T1, SUMO-activating enzyme (Homo sapiens, UniProt Q9UBT2); experiment: blockers of UBC9-mediated SUMO conjugation – biochemical, AlphaScreen, SUMOylation inhibitor project, confirmation (AID 2018); format: functional
[2] = molecular target: T1, SUMO-activating enzyme; experiment: blockers of SAE1/SAE2–UBC9 SUMO transfer – biochemical, HTRF, uHTS, primary screen (AID 2006); format: protein-complex assay
[3] = viability of uninfected HEp-2 cells – cell-based, HTS, cytotoxicity control for RSV inhibitor project, dose response (AID 2410); format: functional; settings: human respiratory syncytial virus
[4] = molecular target: NACHT, LRR and PYD domains-containing protein 1 (Homo sapiens, UniProt Q9C000); experiment: NALP1 inhibitors in yeast, dose response, luminescent (AID 488860); format: functional
[5] = system: Saccharomyces cerevisiae; experiment: S. cerevisiae Caspase-1/ASC signal blockers IC50, NALP1 inhibitor project selectivity test (AID 488863); format: functional, organism-based
[6] = molecular target: T2, Short transient receptor potential channel 4 (Mus musculus, UniProt Q9QUQ5); experiment: potentiation of DAMGO-evoked TRPC4 calcium signal – cell-based, HEK293 TRPC4/mu-opioid, Fluo-4 calcium, EC20 DAMGO, dose response (AID 434941); format: functional
T2 sequence (Q9QUQ5 whole entry): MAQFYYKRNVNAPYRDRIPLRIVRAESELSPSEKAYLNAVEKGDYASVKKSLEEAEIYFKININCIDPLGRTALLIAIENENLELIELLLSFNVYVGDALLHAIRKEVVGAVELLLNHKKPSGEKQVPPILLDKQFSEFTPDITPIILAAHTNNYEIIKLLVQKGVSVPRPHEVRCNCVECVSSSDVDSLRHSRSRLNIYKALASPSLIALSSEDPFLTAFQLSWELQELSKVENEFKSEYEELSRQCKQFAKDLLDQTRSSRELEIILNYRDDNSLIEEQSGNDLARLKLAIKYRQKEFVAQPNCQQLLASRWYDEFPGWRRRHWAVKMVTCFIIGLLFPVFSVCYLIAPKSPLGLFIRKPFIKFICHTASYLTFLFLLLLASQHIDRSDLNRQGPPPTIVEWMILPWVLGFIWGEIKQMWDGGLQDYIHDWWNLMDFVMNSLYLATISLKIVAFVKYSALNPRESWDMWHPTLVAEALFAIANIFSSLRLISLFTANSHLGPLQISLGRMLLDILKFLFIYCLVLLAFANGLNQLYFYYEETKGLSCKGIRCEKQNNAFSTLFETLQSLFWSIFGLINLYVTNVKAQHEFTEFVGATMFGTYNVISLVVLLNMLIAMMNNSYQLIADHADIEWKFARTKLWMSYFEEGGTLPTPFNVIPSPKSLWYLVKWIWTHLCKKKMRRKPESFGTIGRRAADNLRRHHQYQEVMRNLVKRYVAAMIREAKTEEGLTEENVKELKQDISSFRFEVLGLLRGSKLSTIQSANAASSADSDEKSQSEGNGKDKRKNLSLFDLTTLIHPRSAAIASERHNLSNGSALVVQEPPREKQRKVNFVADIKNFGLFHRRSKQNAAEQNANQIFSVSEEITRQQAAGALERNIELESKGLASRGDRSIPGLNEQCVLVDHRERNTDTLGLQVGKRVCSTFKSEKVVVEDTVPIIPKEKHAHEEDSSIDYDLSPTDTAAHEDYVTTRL

T1 sequence (Q9UBE0 whole entry): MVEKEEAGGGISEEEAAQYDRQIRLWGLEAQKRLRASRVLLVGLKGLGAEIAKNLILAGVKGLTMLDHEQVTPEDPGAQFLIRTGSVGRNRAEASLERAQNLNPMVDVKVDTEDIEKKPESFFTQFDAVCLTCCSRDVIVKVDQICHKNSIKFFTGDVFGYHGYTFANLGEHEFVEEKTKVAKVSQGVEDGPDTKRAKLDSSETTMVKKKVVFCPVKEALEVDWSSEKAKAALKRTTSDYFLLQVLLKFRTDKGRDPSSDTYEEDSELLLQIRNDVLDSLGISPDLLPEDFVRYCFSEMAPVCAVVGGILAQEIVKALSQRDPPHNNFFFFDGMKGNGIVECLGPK
T1 sequence (Q9UBT2 whole entry): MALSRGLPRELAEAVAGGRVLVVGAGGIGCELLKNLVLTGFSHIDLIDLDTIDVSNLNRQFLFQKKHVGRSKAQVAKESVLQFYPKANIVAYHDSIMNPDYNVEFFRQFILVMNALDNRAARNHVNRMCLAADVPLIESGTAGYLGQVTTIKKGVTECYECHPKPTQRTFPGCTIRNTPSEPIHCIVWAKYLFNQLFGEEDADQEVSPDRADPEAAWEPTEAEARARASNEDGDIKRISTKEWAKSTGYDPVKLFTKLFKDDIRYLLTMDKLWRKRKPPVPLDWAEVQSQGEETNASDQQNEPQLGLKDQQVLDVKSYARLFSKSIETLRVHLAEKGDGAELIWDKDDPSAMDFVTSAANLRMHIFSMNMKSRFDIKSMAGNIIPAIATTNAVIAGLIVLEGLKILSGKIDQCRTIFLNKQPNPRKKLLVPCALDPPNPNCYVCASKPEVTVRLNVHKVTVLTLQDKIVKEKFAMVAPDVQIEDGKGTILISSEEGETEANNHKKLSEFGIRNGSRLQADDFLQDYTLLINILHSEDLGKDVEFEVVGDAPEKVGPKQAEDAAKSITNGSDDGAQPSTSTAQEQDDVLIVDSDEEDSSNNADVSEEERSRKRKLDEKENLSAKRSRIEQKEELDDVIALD
Sequence of NACHT, LRR and PYD domains-containing protein 1 (Q9C000 1-1212 limits assumed): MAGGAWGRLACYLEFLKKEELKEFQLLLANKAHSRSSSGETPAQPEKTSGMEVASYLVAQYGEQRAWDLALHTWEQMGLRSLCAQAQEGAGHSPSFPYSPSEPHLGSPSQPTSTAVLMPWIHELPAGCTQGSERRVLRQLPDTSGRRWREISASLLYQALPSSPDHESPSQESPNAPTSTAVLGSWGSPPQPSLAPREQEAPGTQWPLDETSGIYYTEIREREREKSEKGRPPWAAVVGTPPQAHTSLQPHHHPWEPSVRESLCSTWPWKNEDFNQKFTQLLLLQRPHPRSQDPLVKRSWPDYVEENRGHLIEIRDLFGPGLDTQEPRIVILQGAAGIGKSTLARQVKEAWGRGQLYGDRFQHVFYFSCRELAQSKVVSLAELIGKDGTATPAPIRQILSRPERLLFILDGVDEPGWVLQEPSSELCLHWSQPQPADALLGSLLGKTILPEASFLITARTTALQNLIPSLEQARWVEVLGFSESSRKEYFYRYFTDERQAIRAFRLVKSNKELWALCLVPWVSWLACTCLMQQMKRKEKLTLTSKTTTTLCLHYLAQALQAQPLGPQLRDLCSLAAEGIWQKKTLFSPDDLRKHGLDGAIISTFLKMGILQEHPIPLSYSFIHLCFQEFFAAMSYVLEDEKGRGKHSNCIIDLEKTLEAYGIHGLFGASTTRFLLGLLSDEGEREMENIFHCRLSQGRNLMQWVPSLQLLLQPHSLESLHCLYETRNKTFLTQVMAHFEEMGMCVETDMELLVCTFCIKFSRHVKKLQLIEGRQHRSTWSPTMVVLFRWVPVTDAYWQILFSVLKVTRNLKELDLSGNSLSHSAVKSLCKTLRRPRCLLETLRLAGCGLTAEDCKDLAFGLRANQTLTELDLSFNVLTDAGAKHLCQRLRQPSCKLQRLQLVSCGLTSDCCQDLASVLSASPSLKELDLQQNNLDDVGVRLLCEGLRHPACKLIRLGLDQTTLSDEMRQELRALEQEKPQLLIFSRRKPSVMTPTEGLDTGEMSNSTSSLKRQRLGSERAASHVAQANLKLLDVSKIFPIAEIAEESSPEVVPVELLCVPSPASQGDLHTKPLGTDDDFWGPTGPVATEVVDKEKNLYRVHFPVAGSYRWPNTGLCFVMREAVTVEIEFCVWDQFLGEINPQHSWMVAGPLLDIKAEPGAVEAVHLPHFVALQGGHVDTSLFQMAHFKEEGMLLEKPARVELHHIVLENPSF
Sequence of NACHT, LRR and PYD domains-containing protein 1 (Q9C000 1213-1473 limits assumed): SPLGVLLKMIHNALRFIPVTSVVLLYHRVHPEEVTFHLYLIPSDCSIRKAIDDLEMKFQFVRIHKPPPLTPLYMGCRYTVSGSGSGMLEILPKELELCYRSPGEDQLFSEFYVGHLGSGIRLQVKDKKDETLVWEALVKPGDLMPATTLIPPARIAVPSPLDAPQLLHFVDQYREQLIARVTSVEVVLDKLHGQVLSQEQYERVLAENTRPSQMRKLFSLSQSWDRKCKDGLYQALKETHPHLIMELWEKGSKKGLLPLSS

Row | IC50 [1] | IC50 [2] | SMILES | also measured
1 | 5.52 µM (active) | 10.5 µM (active) | COc1ccc(NC(=O)CN2C(=O)S/C(=C/c3cccn3-c3ccc(C(=O)O)cc3)C2=O)cc1 | –
2 | 12.6 µM (active) | 28 µM (active) | Sc1nnc(-c2cccc(Cl)c2)n1/N=C/c1ccc(-c2ccccc2Br)o1 | CC50 [3]: > 50 µM (active)
3 | – | – | CCOC(=O)C1CCCN(Cc2ccc(OCC)cc2)C1 (stereo not drawn) | IC50 [4]: > 100 µM (inactive); IC50 [5]: > 100 µM (inactive)
4 | – | – | Oc1[nH]nc(-c2ccccc2)c1/C=N/c1ccc(Cl)cc1 | EC50 [6]: 2.11 µM (active)

Reference: ChEMBL document CHEMBL1201862, “PubChem BioAssay data set” (2004)
